Test systems include SK-MEL-2; TK-10; KM-20L2; A498; HOP-62; 786-0; A549; NCI-H460; HT-29; SF-295; IGROV-1; HCC 2998; M14; Malme-3M; CAKI-1.
What all share (experiment): NCI tumour cell line growth inhibition, 48 h

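Tested at 5 concentrations; 48 h exposure; 96-well plates; endpoints linearly interpolated, else capped at highest concentration. GI50 = concentration required for 50% inhibition of growth.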 The source made the active and inactive calls. No stated cut-off is given here; in the data, active = GI50 up to about 1.1 µM and inactive = higher.

For the molecule `Cc1nc2c(o1)/C(=N\c1ccccc1)c1ccccc1C2=O`, the GI50 with SK-MEL-2 was 4.86 µM (inactive); with TK-10, 35.1 µM (inactive); with KM-20L2, 17.4 µM (inactive); with A498, 34.1 µM (inactive); in the assay with HOP-62 it was 13.5 µM (inactive); in the assay with 786-0, 15.2 µM (inactive). Further, the GI50 is 20.3 µM (inactive) in the assay with A549; 12.6 µM (inactive) with NCI-H460; 18.7 µM (inactive) in the assay with HT-29; 16.5 µM (inactive) in the assay with SF-295; 17.9 µM (inactive) in the assay on IGROV-1; 18.6 µM (inactive) in the assay on HCC 2998. The figures for the GI50 in the assay with M14, in the assay on Malme-3M and with CAKI-1 were 9.64 µM (inactive), 3.98 µM (inactive) and 18.4 µM (inactive), respectively.

In the case of `O=C1C=C[C@@]23CC1C(O)C[C@H]2C=Cc1ccccc13` (stereo not given in full), the GI50 in the assay with SK-MEL-2, with KM-20L2, in the assay with A498, in the assay on HOP-62, in the assay on 786-0 and with A549 was > 100 µM (inactive) in each case. In addition, the GI50 in the assay with NCI-H460, in the assay with HT-29, in the assay with SF-295, with IGROV-1, in the assay on HCC 2998 and with M14 was > 100 µM (inactive) in each case. Also, the GI50 in the assay on Malme-3M and in the assay on CAKI-1 was > 100 µM (inactive) throughout.

On to `CC1=CCC(O)C=CC(C)C(O)C(C)C=C(C)C(=O)c2c(O)c(C)cc3c2C(=O)C(N)=C(NC(=O)/C=C\C=C/C=CC(C)C(O)CC1=O)C3=O` (stereo not given), for which the GI50 in the assay with SK-MEL-2, in the assay on TK-10, in the assay on KM-20L2, with A498, in the assay with HOP-62 and with 786-0 was > 100 µM (inactive) throughout. Moreover, the GI50 in the assay on A549, in the assay with HT-29, in the assay on SF-295, in the assay on IGROV-1, with HCC 2998 and in the assay on M14 was > 100 µM (inactive) in each case. Further, the values for the GI50 with Malme-3M and in the assay on CAKI-1 were 30.1 µM (inactive) and > 100 µM (inactive), respectively.

Regarding `COc1cc([C@H]2c3cc4c(cc3[C@H](NCc3ccc(F)cc3)C3COC(=O)[C@H]32)OCO4)cc(OC)c1O` (stereo not given in full), the GI50 in the assay on SK-MEL-2 is 15.6 µM (inactive); with TK-10, 15.4 µM (inactive); in the assay on KM-20L2 it was 3.56 µM (inactive); in the assay with A498, 2.19 µM (inactive); with HOP-62, 1.23 µM (inactive); in the assay with 786-0, 1.84 µM (inactive). For the same molecule, the GI50 in the assay on NCI-H460 was 0.352 µM (active); in the assay on HT-29 it was 11.2 µM (inactive); in the assay on SF-295 it was 2.25 µM (inactive); in the assay with IGROV-1, 1.44 µM (inactive); in the assay with HCC 2998, 10.5 µM (inactive); in the assay on M14, 3.19 µM (inactive). For the same molecule, in the assay on Malme-3M, the GI50 is 3.79 µM (inactive).

`O=C(c1ccccc1)N1CCN2CCN=C(c3ccccc3)C21c1ccccc1` (stereo not given): the GI50 in the assay with SK-MEL-2 was > 100 µM (inactive); with TK-10, > 100 µM (inactive); in the assay on KM-20L2 it was 70.6 µM (inactive); with A498 it was > 100 µM (inactive); in the assay on HOP-62 it was > 100 µM (inactive); in the assay on 786-0 it was > 100 µM (inactive). The GI50 with A549 is 95.3 µM (inactive); with NCI-H460, 94.8 µM (inactive); with HT-29, > 100 µM (inactive); in the assay on SF-295 it was 52.1 µM (inactive); with IGROV-1 it was > 100 µM (inactive); in the assay with HCC 2998, > 100 µM (inactive). In addition, the GI50 with M14 was 61.2 µM (inactive); with Malme-3M, 35.5 µM (inactive).

For the molecule `O=C(/C=C(\O)C(=O)O)/C=C(\O)c1ccc(Cl)cc1`, the GI50 with SK-MEL-2, in the assay on TK-10, with KM-20L2, in the assay with A498, in the assay on HOP-62 and with 786-0 was > 100 µM (inactive) in each case. For the same molecule, the GI50 in the assay with A549, in the assay with NCI-H460, with HT-29, in the assay with SF-295, with IGROV-1 and with HCC 2998 was > 100 µM (inactive) each time. Further, the GI50 in the assay on M14, with Malme-3M and with CAKI-1 was > 100 µM (inactive) in each case.

As to `CCN(CC)C(=O)CNC(=O)OC(C)(C)C`, the GI50 in the assay on SK-MEL-2, in the assay with TK-10, with KM-20L2, in the assay with A498, in the assay with HOP-62 and in the assay with 786-0 was > 100 µM (inactive) throughout. The GI50 in the assay on A549, with NCI-H460, in the assay with HT-29, in the assay with SF-295, in the assay with IGROV-1 and in the assay on HCC 2998 was > 100 µM (inactive) throughout. Besides, the GI50 in the assay on M14, with Malme-3M and with CAKI-1 was > 100 µM (inactive) in each case.

As to `COc1ccc(C(=O)O)c2c(=O)c3ccccc3[nH]c12`, the GI50 in the assay on SK-MEL-2 was > 100 µM (inactive); in the assay with TK-10 it was > 100 µM (inactive); in the assay with KM-20L2 it was > 100 µM (inactive); in the assay on A498 it was > 100 µM (inactive); in the assay on HOP-62, > 31.6 µM (inactive); with 786-0 it was > 100 µM (inactive). In addition, the GI50 in the assay with A549, with NCI-H460, in the assay on HT-29, in the assay with SF-295, in the assay with IGROV-1 and with HCC 2998 was > 100 µM (inactive) each time. In addition, the values for the GI50 with M14, in the assay with Malme-3M and with CAKI-1 were > 31.6 µM (inactive), > 100 µM (inactive) and > 100 µM (inactive), respectively.

Take `CCc1cc(C(=O)OC)cn1C(=N)c1ccc(Cl)cc1`: the GI50 with SK-MEL-2, in the assay on TK-10, in the assay with KM-20L2, in the assay on A498, in the assay on HOP-62 and in the assay with 786-0 was > 100 µM (inactive) throughout. For the same molecule, the GI50 in the assay on A549, with NCI-H460, in the assay with HT-29, in the assay on SF-295, in the assay on IGROV-1 and in the assay with HCC 2998 was > 100 µM (inactive) each time. The GI50 in the assay on M14, in the assay on Malme-3M and in the assay on CAKI-1 was > 100 µM (inactive) in each case.

As to `O=C1c2c(O)cccc2C(C(=O)CCCCCC(=O)C2c3cccc(O)c3C(=O)c3c(O)cccc32)c2cccc(O)c21`, the GI50 in the assay with SK-MEL-2 is 1.03 µM (active); with TK-10, 3.82 µM (inactive); in the assay with KM-20L2, 5.51 µM (inactive); in the assay on A498, 4.04 µM (inactive); in the assay on HOP-62, 2.88 µM (inactive); in the assay on 786-0 it was 10.6 µM (inactive). For the same molecule, the GI50 with A549 is 1.03 µM (active); with NCI-H460, 0.586 µM (active); in the assay on HT-29 it was 4.49 µM (inactive); with SF-295, 1.14 µM (inactive); in the assay with IGROV-1, 1.14 µM (inactive); with HCC 2998, 2.27 µM (inactive). In addition, the GI50 in the assay on M14 is 2.45 µM (inactive); in the assay on Malme-3M, 2.39 µM (inactive); in the assay on CAKI-1, 4.5 µM (inactive).

On to `COC(=O)C(=O)C(C(=O)C=C(C)C)C(=O)C(=O)Nc1cc(C(F)(F)F)ccc1Cl` (stereo not given), for which the GI50 with SK-MEL-2, with TK-10, in the assay with KM-20L2, with A498, in the assay on HOP-62 and with 786-0 was > 100 µM (inactive) throughout. For the same molecule, the GI50 in the assay with A549, in the assay with NCI-H460, in the assay with HT-29, in the assay with SF-295, in the assay on IGROV-1 and in the assay on HCC 2998 was > 100 µM (inactive) in each case. The GI50 with M14, in the assay with Malme-3M and in the assay with CAKI-1 was > 100 µM (inactive) in each case.

In the case of `CC(=O)c1cccc(NC(=O)C(=O)Nn2c(N)nnc2N)c1`, the GI50 in the assay on SK-MEL-2, in the assay on TK-10, with KM-20L2, with A498, with HOP-62 and in the assay with 786-0 was > 100 µM (inactive) throughout. The GI50 in the assay with A549, in the assay with NCI-H460, in the assay with HT-29, with SF-295, in the assay with IGROV-1 and with HCC 2998 was > 100 µM (inactive) in each case. The GI50 in the assay on M14, in the assay on Malme-3M and in the assay with CAKI-1 was > 100 µM (inactive) each time.

On to `Cc1cc(N(CCC#N)CCC#N)ccc1/N=N/c1ccc(Br)cc1`, for which the GI50 was 15.1 µM (inactive) in the assay with SK-MEL-2; 14.3 µM (inactive) in the assay with TK-10; 3.61 µM (inactive) in the assay with KM-20L2; 13.7 µM (inactive) in the assay on A498; 6.41 µM (inactive) in the assay with HOP-62; 13.2 µM (inactive) with 786-0. Also, the GI50 in the assay with A549 is 15.1 µM (inactive); in the assay with NCI-H460 it was > 100 µM (inactive); with HT-29 it was > 100 µM (inactive); in the assay with SF-295 it was 21.4 µM (inactive); in the assay with IGROV-1 it was 10.9 µM (inactive); in the assay with HCC 2998, > 27 µM (inactive). Besides, the GI50 in the assay with M14 was 9.02 µM (inactive); in the assay with Malme-3M, 53.6 µM (inactive); with CAKI-1 it was 16.4 µM (inactive).

The values are drawn from ChEMBL document CHEMBL1201862, “PubChem BioAssay data set” (2004).
